Data on two molecules can be found in US6897199B2, “Pharmaceutically acceptable salts of phenoxazine and phenothiazine compounds” (Dr. Reddy's Laboratories Ltd., priority 2001, dated 2005).

For test [1], the system named is hypercholesterolemic rat models. The test can be described thus: Plasma triglyceride and cholesterol lowering activity in hypercholesterolemic rat models. The test is classed as in vivo, Male Sprague Dawley rats. The note with it: dose 10 mg/kg orally for 3 days. As to the method:
b) Plasma triglyceride and Cholesterol Lowering Activity in Hypercholesterolemic Rat Models
Male Sprague Dawley rats (NIN stock) were bred in DRF animal house. Animals were maintained under 12 hour light and dark cycle at 25±1° C. Rats of 180-200 gram body weight range were used for the experiment. Animals are made hypercholesterolemic by feeding 2% cholesterol and 1% sodium cholate mixed with standard laboratory chow [National Institute of Nutrition (NIN), Hyderabad, India] for 6 days. Throughout the experimental period the animals are maintained on the same diet (Petit, D., Bonnefis, M. T., Rey, C and Infante, R. Effects of ciprofibrate on liver lipids and lipoprotein synthesis in normo- and hyperlipidemic rats. Atherosclerosis. 1988.74: 215-225).
The test compounds were administered orally at a dose 0.1 to 30 mg/kg/day for 3 days. Control group is treated with vehicle alone (0.25% Carboxymethylcellulose; dose 10 ml/kg).
The blood samples were collected in fed state 1 hour after drug administration on 0 and 3 day of compound treatment. The blood was collected from the retro-orbital sinus through heparinised capillary in EDTA containing tubes. After centrifugation, plasma sample is separated for total cholesterol, HDL and triglyceride estimations. Measurement of plasma triglyceride (TG), total cholesterol (TC) and HDL are done using commercial kits (Dr. Reddy's Laboratory, Diagnostic Division, India). LDL and VLDL cholesterol were calculated from the data obtained for total cholesterol, HDL and triglyceride. The reduction of various parameters examined are calculated according to the formula given below.
Formulae for Calculation: • 1. Percent reduction in Blood sugar/triglycerides/total cholesterol were calculated according to the formula: [formula] • OC=Zero day control group value • OT=Zero day treated group value • TC=Test day control group value • TT=Test day treated group value • 2. LDL and VLDL cholesterol levels were calculated according to the formula: [formula] VLDL cholesterol in mg/dl=[Total cholesterol−HDL cholesterol−LDL cholesterol]mg/dl.

Test [2] concerns the target T1, hPPARα (Homo sapiens, UniProt Q07869).
T1 sequence (Q07869 239-466 limits assumed): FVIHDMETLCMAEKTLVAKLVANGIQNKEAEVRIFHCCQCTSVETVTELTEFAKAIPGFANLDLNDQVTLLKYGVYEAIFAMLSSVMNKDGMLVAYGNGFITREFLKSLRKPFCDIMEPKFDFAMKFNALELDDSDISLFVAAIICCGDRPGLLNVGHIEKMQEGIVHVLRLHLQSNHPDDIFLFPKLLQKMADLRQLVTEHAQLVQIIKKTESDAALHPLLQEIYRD
Conditions: compound concentration 50 μM; luciferase activity, HEK-293 cells. As for the experimental part: a) Determination of hPPARα Activity
Ligand binding domain of hPPARα was fused to DNA binding domain of Yeast transcription factor GAL4 in eucaryotic expression vector. Using superfect (Qiagen, Germany) as transfecting reagent HEK-293 cells were transfected with this plasmid and a reporter plasmid harboring the luciferase gene driven by a GAL4 specific promoter. Compound was added at different concentrations after 42 hrs of transfection and incubated overnight.

Counter-ions that a name gives are not always drawn.

On to `CCO[C@@H](Cc1ccc(OCCN2c3ccccc3Oc3ccccc32)cc1)C(=O)O` [Example 3, (−)-3-[4-[2-(Phenoxazin-10-yl)ethoxy]phenyl]-2-ethoxypropanoic acid metformin salt], for which the LDL in test [1] (LDL cholesterol calculated from TC, HDL and TG) was 46. Also, the VLDL in test [1] (VLDL cholesterol calculated from TC, HDL and TG) is reported as 82. The molecule also registered an HDL in test [1] (plasma HDL) of 64. Also, the TC in test [1] (plasma total cholesterol, percent reduction by formula of b285) worked out at 82. Besides, the TG in test [1] (plasma triglyceride, percent reduction by formula of b285) is 47.

Regarding “(−)-3-[4-[2-(Phenoxazin-10-yl)ethoxy]phenyl]-2-ethoxypropanoic acid phenylglycinol salt [Example 12]”, the PPARα in test [2] stood at 3.7.
